# Source: US20230082430A1 (C4 Therapeutics, Inc., priority 2019, published 2023)
# pIC50: −log10 of the molar value.
# Test system: NCIH929.1 cells
# Experiment: Cell viability assay for Table 2 (CellTiter-Glo 2.0, ATP quantification, 96 hr)
# Type: cell-based
# Settings: 96 h, NCIH929.1 cell viability, 96 hr, top concentration 1 μM, 14 points half log titration; read-out: IC50
# Description: Cell Viability Assay for Table 2
# CellTiter-Glo® 2.0 Assay was purchased from Promega (Madison, Wis., USA). NCIH929.1 cell line was purchased from ATCC (Manassas, Va., USA). Cell culture flasks and 384-well microplates were acquired from VWR (Radnor, Pa., USA).
row,SMILES,pIC50
1,"CN(C(=O)N1CCC(n2cc(Cc3ccc4c5c(cccc35)C(=O)N4C3CCC(=O)NC3=O)cn2)CC1)C1CC1 (centres unmarked) [Compound 261, N-cyclopropyl-4-(4-((1-(2,6-dioxopiperidin-3-yl)-2-oxo-1,2-dihydrobenzo[cd]indol-6-yl)methyl)-1H-pyrazol-1-yl)-N-methylpiperidine-1-carboxamide]",> 9.00
2,"CC1(CN2CCC(c3ccc(Cc4ccc5c6c(cccc46)C(=O)N5C4CCC(=O)NC4=O)cc3)CC2)CCC1 (centres unmarked) [Compound 170, 3-[6-[[4-[1-[(1-methylcyclobutyl)methyl]-4-piperidyl]phenyl]methyl]-2-oxo-benzo[cd]indol-1-yl]piperidine-2,6-dione]",> 9.00
3,"O=C1CCC(N2C(=O)c3cccc4c(Cc5cnn(C6CCN(CC7(C(F)(F)F)CCC7)CC6)c5)ccc2c34)C(=O)N1 (centres unmarked) [Compound 57, 3-(2-oxo-6-((1-(1-((1-(trifluoromethyl)cyclobutyl)methyl)piperidin-4-yl)-1H-pyrazol-4-yl)methyl)benzo[cd]indol-1(2H)-yl)piperidine-2,6-dione]",> 9.00
4,"CC1(C(=O)N2CCC(n3cc(Cc4ccc5c6c(cccc46)C(=O)N5C4CCC(=O)NC4=O)cn3)CC2)CCOCC1 (centres unmarked) [Compound 41, 3-(6-((1-(1-(4-methyltetrahydro-2H-pyran-4-carbonyl)piperidin-4-yl)-1H-pyrazol-4-yl)methyl)-2-oxobenzo[cd]indol-1(2H)-yl)piperidine-2,6-dione]",> 9.00
5,"N#Cc1ccc(N2CCN(C(=O)c3ccc(Cc4ccc5c6c(cccc46)C(=O)N5C4CCC(=O)NC4=O)cc3)CC2)c(F)c1 (centres unmarked) [Compound 196, 4-[4-[4-[[1-(2,6-dioxo-3-piperidyl)-2-oxo-benzo[cd]indol-6-yl]methyl]benzoyl]piperazin-1-yl]-3-fluoro-benzonitrile]",> 9.00
6,"CC1(CN2CCC(n3cc(Cc4ccc5c6c(cccc46)C(=O)N5C4CCC(=O)NC4=O)cn3)CC2)CC1 (centres unmarked) [Compound 64, 3-[6-[[1-[1-[(1-methylcyclopropyl)methyl]-4-piperidyl]pyrazol-4-yl]methyl]-2-oxo-benzo[cd]indol-1-yl]piperidine-2,6-dione]",> 9.00
7,"CC1(n2cc(Cc3ccc4c5c(cccc35)C(=O)N4C3CCC(=O)NC3=O)cn2)CCN(c2ncccc2F)CC1 (centres unmarked) [Compound 126, 3-[6-[[1-[1-(3-fluoro-2-pyridyl)-4-methyl-4-piperidyl]pyrazol-4-yl]methyl]-2-oxo-benzo[cd]indol-1-yl]piperidine-2,6-dione]",> 9.00
8,"N#Cc1ccc(N2CCN(Cc3ccc(Cc4ccc5c6c(cccc46)C(=O)N5C4CCC(=O)NC4=O)cc3)C3(CC3)C2)c(F)c1 (centres unmarked) [Compound 131, 4-[4-[[4-[[1-(2,6-dioxo-3-piperidyl)-2-oxo-benzo[cd]indol-6-yl]methyl]phenyl]methyl]-4,7-diazaspiro[2.5]octan-7-yl]-3-fluoro-benzonitrile]",> 9.00
9,"CC1(CN2CCC(n3cc(Cc4ccc5c6c(cccc46)C(=O)N5C4CCC(=O)NC4=O)cn3)(C(F)(F)F)CC2)CCC1 (centres unmarked) [Compound 191, 3-[6-[[1-[1-[(1-methylcyclobutyl)methyl]-4-(trifluoromethyl)-4-piperidyl]pyrazol-4-yl]methyl]-2-oxo-benzo[cd]indol-1-yl]piperidine-2,6-dione]",> 9.00
10,"O=C1CCC(N2C(=O)c3cccc4c(Cc5cnn(C6CCN(C(=O)C78C9C%10C%11C9C7C%11C%108)CC6)c5)ccc2c34)C(=O)N1 (centres unmarked) [Compound 54, 3-(6-((1-(1-(cubane-1-carbonyl)piperidin-4-yl)-1H-pyrazol-4-yl)methyl)-2-oxobenzo[cd]indol-1(2H)-yl)piperidine-2,6-dione]",> 9.00
11,O=C1CCC(N2C(=O)c3cccc4c(Cc5cnn(C6CCN([C@@H]7CCC8(CCC8)C7)CC6)c5)ccc2c34)C(=O)N1 (some centres unmarked) [Compound 243],> 9.00
12,"CC1(CN2CCC(n3cc(Cc4ccc5c6c(cccc46)C(=O)N5C4CCC(=O)NC4=O)cn3)CC2)CC1 (single isomer, unassigned) [Compound 234, 3-[6-[[1-[1-[(1-methylcyclopropyl)methyl]-4-piperidyl]pyrazol-4-yl]methyl]-2-oxo-benzo[cd]indol-1-yl]piperidine-2,6-dione]",> 9.00
13,"CC1(n2cc(Cc3ccc4c5c(cccc35)C(=O)N4C3CCC(=O)NC3=O)cn2)CCN(C(=O)C23C4C5C6C4C2C6C53)CC1 (stereo not drawn) [Compound 70, 3-(6-((1-(l-(cubane-1-carbonyl)-4-methylpiperidin-4-yl)-1H-pyrazol-4-yl)methyl)-2-oxobenzo[cd]indol-1(2H)-yl)piperidine-2,6-dione]",> 9.00
14,"O=C1CCC(N2C(=O)c3cccc4c(Cc5cnn(C6CCN(C(=O)c7cccnc7)CC6)c5)ccc2c34)C(=O)N1 (centres unmarked) [Compound 43, 3-(6-((1-(1-nicotinoylpiperidin-4-yl)-1H-pyrazol-4-yl)methyl)-2-oxobenzo[cd]indol-1(2H)-yl)piperidine-2,6-dione]",> 9.00
15,"CC(=O)N1CCC(C)(n2cc(Cc3ccc4c5c(cccc35)C(=O)N4C3CCC(=O)NC3=O)cn2)CC1 (centres unmarked) [Compound 75, 3-(6-((1-(1-acetyl-4-methylpiperidin-4-yl)-1H-pyrazol-4-yl)methyl)-2-oxobenzo[cd]indol-1(2H)-yl)piperidine-2,6-dione]",> 9.00
16,"O=C1CCC(N2C(=O)c3cccc4c(Cc5cnn(C6CCN(C(=O)C7(C(F)(F)F)CC7)CC6)c5)ccc2c34)C(=O)N1 (centres unmarked) [Compound 52, 3-(2-oxo-6-((1-(1-(1-(trifluoromethyl)cyclopropane-1-carbonyl)piperidin-4-yl)-1H-pyrazol-4-yl)methyl)benzo[cd]indol-1(2H)-yl)piperidine-2,6-dione]",> 9.00
17,"O=C1CCC(N2C(=O)c3cccc4c(Cc5ccc(CN6CCC(Oc7ccc(F)cc7)CC6)cc5)ccc2c34)C(=O)N1 (centres unmarked) [Compound 258, 3-(6-(4-((4-(4-fluorophenoxy)piperidin-1-yl)methyl)benzyl)-2-oxobenzo[cd]indol-1(2H)-yl)piperidine-2,6-dione]",> 9.00
18,"CC(C)(C)C1CCN(Cc2ccc(Cc3ccc4c5c(cccc35)C(=O)N4C3CCC(=O)NC3=O)cc2)CC1 (centres unmarked) [Compound 158, 3-[6-[[4-[(4-tert-butyl-1-piperidyl)methyl]phenyl]methyl]-2-oxo-benzo[cd]indol-1-yl]piperidine-2,6-dione]",> 9.00
19,"CC1(CN2CCN(c3ccc(Cc4ccc5c6c(cccc46)C(=O)N5C4CCC(=O)NC4=O)cc3)CC2)CCC1 (centres unmarked) [Compound 168, 3-[6-[[4-[4-[(1-methylcyclobutyl)methyl]piperazin-1-yl]phenyl]methyl]-2-oxo-benzo[cd]indol-1-yl]piperidine-2,6-dione]",> 9.00
20,"O=C1CCC(N2C(=O)c3cccc4c(Cc5cnn(C6CCN(C(=O)C78CC(CO7)C8)CC6)c5)ccc2c34)C(=O)N1 (centres unmarked) [Compound 48, 3-(6-((1-(1-(2-oxabicyclo[2.1.1]hexane-1-carbonyl)piperidin-4-yl)-1H-pyrazol-4-yl)methyl)-2-oxobenzo[cd]indol-1(2H)-yl)piperidine-2,6-dione]",> 9.00
21,"O=C1CCC(N2C(=O)c3cccc4c(Cc5ccc(CN6CCOC(c7ccc(F)cc7)C6)cc5)ccc2c34)C(=O)N1 (centres unmarked) [Compound 119, 3-(6-(4-((2-(4-fluorophenyl)morpholino)methyl)benzyl)-2-oxobenzo[cd]indol-1(2H)-yl)piperidine-2,6-dione]",> 9.00
22,CC(C)(C)C(=O)N1CCC(C)(n2cc(Cc3ccc4c5c(cccc35)C(=O)N4C3CCC(=O)NC3=O)cn2)CC1 (centres unmarked) [Compound 93],> 9.00
23,"CC1(C(=O)N2CCC(C)(n3cc(Cc4ccc5c6c(cccc46)C(=O)N5C4CCC(=O)NC4=O)cn3)CC2)CCOCC1 (centres unmarked) [Compound 81, 3-(6-((1-(4-methyl-1-(4-methyltetrahydro-2H-pyran-4-carbonyl)piperidin-4-yl)-1H-pyrazol-4-yl)methyl)-2-oxobenzo[cd]indol-1(2H)-yl)piperidine-2,6-dione]",> 9.00
24,"CC(C)(C)C[C@H]1CC[C@@H](n2cc(Cc3ccc4c5c(cccc35)C(=O)N4C3CCC(=O)NC3=O)cn2)CC1 (some centres unmarked) [Compound 259, 3-(6-((1-((1r,4r)-4-neopentylcyclohexyl)-1H-pyrazol-4-yl)methyl)-2-oxobenzo[cd]indol-1(2H)-yl)piperidine-2,6-dione]",> 9.00
25,"N#Cc1ccc(N2CCN(Cc3ccc(Cc4ccc5c6c(cccc46)C(=O)N5C4CCC(=O)NC4=O)cc3)CC2)c(F)c1 (single isomer, unassigned) [Compound 184, 4-(4-(4-((1-(2,6-dioxopiperidin-3-yl)-2-oxo-1,2-dihydrobenzo[cd]indol-6-yl)methyl)benzyl)piperazin-1-yl)-3-fluorobenzonitrile]",> 9.00
26,"O=C1CCC(N2C(=O)c3cccc4c(Cc5cnn(C6CCN(C7CCC78CCC8)CC6)c5)ccc2c34)C(=O)N1 (single isomer, unassigned) [Compound 244, 3-{2-Oxo-6-[1-(1-spiro[3.3]hept-1-yl-piperidin-4-yl)-1H-pyrazol-4-ylmethyl]-2H-benzo[cd]indol-1-yl}-piperidine-2,6-dione]",> 9.00
27,"O=C1CCC(N2C(=O)c3cccc4c(Oc5ccc(CN6CCOCC6)cc5)ccc2c34)C(=O)N1 (centres unmarked) [Compound 273, 3-(6-(4-(morpholinomethyl)phenoxy)-2-oxobenzo[cd]indol-1(2H)-yl)piperidine-2,6-dione]",> 7.00
28,"CC1(C(=O)N2CCC(c3cccc(Cc4ccc5c6c(cccc46)C(=O)N5C4CCC(=O)NC4=O)c3)CC2)CCC1 (centres unmarked) [Compound 290, 3-[6-[[3-[1-(1-methylcyclobutanecarbonyl)-4-piperidyl]phenyl]methyl]-2-oxo-benzo[cd]indol-1-yl]piperidine-2,6-dione]",> 9.00

# Same assay, conditions: NCIH929.1 cell viability, 96 hr, top concentration 1 μM, 14 points half log titration; read-out: IC50
row,SMILES,pIC50
1,"O=C1CCC(N2C(=O)c3cccc4c(Cc5ccc(CN6CCN(c7ccccc7F)CC6)cc5)ccc2c34)C(=O)N1 (single isomer, unassigned) [Compound 190, 3-[6-[[4-[[4-(2-fluorophenyl)piperazin-1-yl]methyl]phenyl]methyl]-2-oxo-benzo[cd]indol-1-yl]piperidine-2,6-dione]",> 7.00
